Several values for one entry are separate records, joined by “and”; a condition that tells them apart may be missing. Equal values may be shown once.
Test: molar heat capacity at constant volume; wn = mass fraction of the nth substance listed
Conditions: Liquid, Vacuum adiabatic calorimetry, w2 = 0.4981

FC(F)C(F)(F)F [pentafluoroethane] + FCF
Conditions | molar heat capacity at constant volume
277.15 K, 11982 kPa | 66.66 J/K/mol
278.15 K, 12826 kPa | 66.08 J/K/mol
279.15 K, 13669 kPa | 66.51 J/K/mol
280.15 K, 14512 kPa | 66.73 J/K/mol
281.15 K, 15355 kPa | 66.15 J/K/mol
282.15 K, 16198 kPa | 66.44 J/K/mol
283.15 K, 17040 kPa | 65.86 J/K/mol
284.15 K, 17881 kPa | 67.75 J/K/mol
285.15 K, 18722 kPa | 66.22 J/K/mol
286.15 K, 19563 kPa | 66.08 J/K/mol
287.15 K, 20403 kPa | 66.15 J/K/mol
288.15 K, 21239 kPa | 65.93 J/K/mol
289.15 K, 22077 kPa | 67.1 J/K/mol
291.15 K, 23750 kPa | 66.88 J/K/mol
292.15 K, 24585 kPa | 66.81 J/K/mol
293.15 K, 25420 kPa | 65.64 J/K/mol
294.15 K, 26254 kPa | 66.37 J/K/mol
295.15 K, 27085 kPa | 65.28 J/K/mol
296.15 K, 27917 kPa | 67.31 J/K/mol
297.15 K, 8118 kPa | 66.88 J/K/mol
297.15 K, 28747 kPa | 66.22 J/K/mol
298.15 K, 29575 kPa | 66.01 J/K/mol
299.15 K, 9422 kPa | 68.48 J/K/mol
300.15 K, 10072 kPa | 69.35 J/K/mol
300.15 K, 10089 kPa | 66.22 J/K/mol
301.15 K, 10723 kPa | 68.99 J/K/mol
301.15 K, 10737 kPa | 69.93 J/K/mol
302.15 K, 11374 kPa | 69.2 J/K/mol
302.15 K, 11385 kPa | 67.31 J/K/mol
303.15 K, 12024 kPa | 69.2 J/K/mol
303.15 K, 12032 kPa | 68.7 J/K/mol
304.15 K, 12672 kPa | 68.91 J/K/mol
304.15 K, 12680 kPa | 68.77 J/K/mol
305.15 K, 13320 kPa | 69.57 J/K/mol
305.15 K, 13327 kPa | 69.06 J/K/mol
306.15 K, 13970 kPa | 69.06 J/K/mol
306.15 K, 13973 kPa | 68.99 J/K/mol
307.15 K, 14620 kPa | 68.62 J/K/mol and 68.33 J/K/mol
308.15 K, 15268 kPa | 69.71 J/K/mol and 68.11 J/K/mol
309.15 K, 15915 kPa | 68.62 J/K/mol
309.15 K, 15917 kPa | 69.57 J/K/mol
310.15 K, 16562 kPa | 68.55 J/K/mol
310.15 K, 16564 kPa | 68.84 J/K/mol
311.15 K, 17208 kPa | 69.13 J/K/mol
311.15 K, 17212 kPa | 68.99 J/K/mol
312.15 K, 17853 kPa | 68.91 J/K/mol
312.15 K, 17859 kPa | 68.41 J/K/mol
313.15 K, 18499 kPa | 66.81 J/K/mol
313.15 K, 18506 kPa | 68.77 J/K/mol
314.15 K, 19144 kPa | 68.48 J/K/mol
314.15 K, 19153 kPa | 69.13 J/K/mol
315.15 K, 19788 kPa | 68.41 J/K/mol
315.15 K, 19798 kPa | 69.35 J/K/mol
316.15 K, 20432 kPa | 68.55 J/K/mol
316.15 K, 20443 kPa | 68.41 J/K/mol
317.15 K, 21075 kPa | 68.48 J/K/mol
317.15 K, 21088 kPa | 68.62 J/K/mol
318.15 K, 21719 kPa | 67.75 J/K/mol
318.15 K, 21733 kPa | 68.55 J/K/mol
319.15 K, 22362 kPa | 68.33 J/K/mol
319.15 K, 22377 kPa | 67.9 J/K/mol
320.15 K, 23005 kPa | 69.71 J/K/mol
320.15 K, 23021 kPa | 69.2 J/K/mol
321.15 K, 23648 kPa | 67.1 J/K/mol
321.15 K, 23665 kPa | 68.33 J/K/mol
322.15 K, 24289 kPa | 70.15 J/K/mol
322.15 K, 24307 kPa | 68.41 J/K/mol
323.15 K, 24930 kPa | 68.41 J/K/mol
323.15 K, 24949 kPa | 69.71 J/K/mol
324.15 K, 25571 kPa | 68.77 J/K/mol
324.15 K, 25590 kPa | 68.04 J/K/mol
325.15 K, 26210 kPa | 67.61 J/K/mol
325.15 K, 26231 kPa | 68.41 J/K/mol
326.15 K, 26850 kPa | 68.62 J/K/mol
326.15 K, 26871 kPa | 68.11 J/K/mol
327.15 K, 27488 kPa | 68.55 J/K/mol
327.15 K, 27511 kPa | 67.75 J/K/mol
328.15 K, 28127 kPa | 68.62 J/K/mol
328.15 K, 28150 kPa | 68.19 J/K/mol
329.15 K, 5865 kPa | 70.22 J/K/mol
329.15 K, 5904 kPa | 72.11 J/K/mol
329.15 K, 28764 kPa | 69.13 J/K/mol
329.15 K, 28790 kPa | 68.62 J/K/mol
330.15 K, 6231 kPa | 73.78 J/K/mol
330.15 K, 6255 kPa | 72.33 J/K/mol
330.15 K, 6269 kPa | 69.13 J/K/mol
330.15 K, 29402 kPa | 68.04 J/K/mol
330.15 K, 29426 kPa | 67.97 J/K/mol
331.15 K, 6598 kPa | 70.66 J/K/mol
331.15 K, 6620 kPa | 71.09 J/K/mol
331.15 K, 6635 kPa | 70.15 J/K/mol
331.15 K, 30065 kPa | 69.93 J/K/mol
332.15 K, 6965 kPa | 73.2 J/K/mol
332.15 K, 6987 kPa | 73.28 J/K/mol
332.15 K, 7002 kPa | 71.46 J/K/mol
333.15 K, 7333 kPa | 71.39 J/K/mol
333.15 K, 7355 kPa | 71.82 J/K/mol
333.15 K, 7370 kPa | 69.13 J/K/mol
334.15 K, 7700 kPa | 71.17 J/K/mol
334.15 K, 7723 kPa | 71.02 J/K/mol
334.15 K, 7736 kPa | 71.24 J/K/mol
335.15 K, 8069 kPa | 71.02 J/K/mol
335.15 K, 8090 kPa | 72.62 J/K/mol
335.15 K, 8104 kPa | 70.51 J/K/mol
336.15 K, 8438 kPa | 70.73 J/K/mol
336.15 K, 8457 kPa | 69.5 J/K/mol
336.15 K, 8472 kPa | 70.88 J/K/mol
337.15 K, 8807 kPa | 71.02 J/K/mol
337.15 K, 8826 kPa | 71.53 J/K/mol
337.15 K, 8840 kPa | 69.42 J/K/mol
338.15 K, 9176 kPa | 71.02 J/K/mol
338.15 K, 9194 kPa | 71.39 J/K/mol
338.15 K, 9209 kPa | 69.42 J/K/mol
339.15 K, 9546 kPa | 70.66 J/K/mol
339.15 K, 9563 kPa | 71.39 J/K/mol
339.15 K, 9579 kPa | 69.57 J/K/mol
340.15 K, 9916 kPa | 70.3 J/K/mol
340.15 K, 9933 kPa | 70.37 J/K/mol
340.15 K, 9949 kPa | 68.91 J/K/mol
341.15 K, 10286 kPa | 70.44 J/K/mol
341.15 K, 10302 kPa | 70.95 J/K/mol
341.15 K, 10320 kPa | 70.15 J/K/mol
342.15 K, 10657 kPa | 69.79 J/K/mol
342.15 K, 10672 kPa | 70.59 J/K/mol
342.15 K, 10691 kPa | 68.55 J/K/mol
343.15 K, 11028 kPa | 70.15 J/K/mol
343.15 K, 11043 kPa | 71.46 J/K/mol
343.15 K, 11061 kPa | 70.08 J/K/mol
344.15 K, 11399 kPa | 70.08 J/K/mol
344.15 K, 11413 kPa | 70.59 J/K/mol
344.15 K, 11431 kPa | 68.99 J/K/mol
345.15 K, 6187 kPa | 86.29 J/K/mol
345.15 K, 11770 kPa | 69.79 J/K/mol
345.15 K, 11784 kPa | 71.39 J/K/mol
345.15 K, 11802 kPa | 69.35 J/K/mol
346.15 K, 6420 kPa | 87.01 J/K/mol
346.15 K, 12143 kPa | 70.3 J/K/mol
346.15 K, 12155 kPa | 70.37 J/K/mol
346.15 K, 12174 kPa | 68.62 J/K/mol
347.15 K, 6655 kPa | 85.49 J/K/mol
347.15 K, 6657 kPa | 86.07 J/K/mol
347.15 K, 12515 kPa | 70.44 J/K/mol
347.15 K, 12527 kPa | 72.33 J/K/mol
347.15 K, 12547 kPa | 69.35 J/K/mol
348.15 K, 6890 kPa | 85.63 J/K/mol
348.15 K, 6893 kPa | 86.51 J/K/mol
348.15 K, 12887 kPa | 69.06 J/K/mol
348.15 K, 12899 kPa | 70.15 J/K/mol
348.15 K, 12919 kPa | 68.84 J/K/mol
349.15 K, 7127 kPa | 83.74 J/K/mol
349.15 K, 7130 kPa | 86.51 J/K/mol
349.15 K, 13259 kPa | 69.86 J/K/mol
349.15 K, 13271 kPa | 70.95 J/K/mol
349.15 K, 13292 kPa | 69.42 J/K/mol
350.15 K, 7364 kPa | 85.2 J/K/mol
350.15 K, 7368 kPa | 84.47 J/K/mol
350.15 K, 13631 kPa | 69.42 J/K/mol
350.15 K, 13643 kPa | 70.15 J/K/mol
350.15 K, 13664 kPa | 69.28 J/K/mol
351.15 K, 7602 kPa | 84.11 J/K/mol
351.15 K, 7606 kPa | 85.42 J/K/mol
351.15 K, 14004 kPa | 70.08 J/K/mol
351.15 K, 14015 kPa | 70.73 J/K/mol
351.15 K, 14036 kPa | 68.48 J/K/mol
352.15 K, 7841 kPa | 83.23 J/K/mol
352.15 K, 7845 kPa | 84.11 J/K/mol
352.15 K, 14377 kPa | 69.06 J/K/mol
352.15 K, 14387 kPa | 70.22 J/K/mol
352.15 K, 14409 kPa | 68.84 J/K/mol
353.15 K, 8080 kPa | 82.36 J/K/mol
353.15 K, 8084 kPa | 83.16 J/K/mol
353.15 K, 14750 kPa | 70.08 J/K/mol
353.15 K, 14761 kPa | 71.46 J/K/mol
353.15 K, 14783 kPa | 68.41 J/K/mol
354.15 K, 8320 kPa | 83.38 J/K/mol
354.15 K, 8324 kPa | 83.89 J/K/mol
354.15 K, 15123 kPa | 69.5 J/K/mol
354.15 K, 15133 kPa | 70.59 J/K/mol
354.15 K, 15157 kPa | 68.48 J/K/mol
355.15 K, 8560 kPa | 82.73 J/K/mol
355.15 K, 8565 kPa | 84.62 J/K/mol
355.15 K, 15496 kPa | 69.64 J/K/mol
355.15 K, 15507 kPa | 70.59 J/K/mol
355.15 K, 15531 kPa | 69.64 J/K/mol
356.15 K, 8801 kPa | 83.45 J/K/mol
356.15 K, 8806 kPa | 82.87 J/K/mol
356.15 K, 15869 kPa | 70.59 J/K/mol
356.15 K, 15880 kPa | 69.93 J/K/mol
356.15 K, 15904 kPa | 68.99 J/K/mol
